B1: Trypsin: Protease from the Pierce Quanticleave protease assay kit II (13564 units/mg) (protein, UniProt P00760 24-246, looked up)
Serine protease 1: IVGGYTCGANTVPYQVSLNSGYHFCGGSLINSQWVVSAAHCYKSGIQVRLGEDNINVVEGNEQFISASKSIVHPSYNSNTLNNDIMLIKLKSAASLNSRVASISLPTSCASAGTQCLISGWGNTKSSGTSYPDVLKCLKAPILSDSSCKSAYPGQITSNMFCAGYLEGGKDSCQGDSGGPVVCSGKLQGIVSWGSGCAQKNKPGVYTKVCNYVSWIKQTIASN

Experiments:
Assay type in all cases: biochemical
[1] = Elastase assay using Suc(Ala)3-nA (SANA); details: room temperature, 20 minutes
Description: Elastase assay using Suc(Ala)3-nA (SANA). The following method was used for testing PPE (CalBio-chem) activity. A 25 mM stock solution of SANA (Sigma) in dimethyl sulfoxide (Sigma), 1 mg/ml stock solution of elastase in distilled water, and 0.2 M Tris buffer pH 8.0 with 0.1% Triton X-100(Sigma) was prepared. The assay contained 12 μl of SANA and 50 μl of the enzyme sample and was made up to 200 μl with 0.2 M Tris buffer. All reactions were prepared in 96-well Falcon 3097 flat-bottom microtiter plates (Beckton Dickinson) and carried out at room temperature. The optical density of each digest was recorded for 20 min, at 30 second intervals, at 405 nm using a Bio-Whittaker microplate reader 2001 (Bio-Whittaker).
(§1) Comparison of Succinyl Elastin with SANA. The sensitivity of the succinylated elastin assay was compared to an elastase assay that uses SANA, a synthetic elastase substrate. 50 μl of 1000, 100, 10 and 1 ng/ml elastase was used to digest 100 μg of succinylated elastin and 12 μl of 12 mM SANA. The succinylated elastin digest was carried out at 37° C. for 1 hour. The SANA elastase assay was carried out at room temperature for 20 minutes. Optical densities were measured at 450 nm for succinylated elastin assay and 405 nm for SANA elastase assay. Blank reaction contained buffer/enzyme. Blank reading was subtracted from the final reaction optical density to give corrected absorbance values. Standard deviations are given in parentheses.

succinylated gelatin = experiment: Protease assay using succinylated gelatin substrate with TNBSA detection; details: 100 μg succinylated gelatin, 37° C., 1 hour
Description: (§2) Assay Conditions. Elastase assay using succinylated elastin: A modified version of the method described in the Pierce Quanticleave™ protease assay kit II (Pierce Chemical Co.) was used for the elastase assay. The assay contained 100 μg of succinylated substrate (gelatin, elastin, or casein) and 50 μl of enzyme sample to be assayed, and the reaction was brought up to a final volume of 150 μl with BupH buffer or 50 mM sodium borate, pH 8.0 (50 mM sodium borate, pH 8.0, is a suitable substitute for BupH buffer). All reactions were prepared in 96-well Falcon 3097 flat-bottom microtiter plates (Beckton Dickinson, N.J.) The reactions were then incubated at 37° C. for 60 min. Fifty microliters of a 0.03% solution of TNBSA was then added to each reaction and left for 20 min at room temperature. The optical density of each reaction was then determined using a Bio-Whittaker microplate reader 2001 (Bio-Whittaker, Walkersville, Md.) at 450 nm. Blank reactions were also prepared which contained buffer and protease, buffer and substrate and buffer only. All sample dilutions were prepared in BupH buffer or 50 mM sodium borate buffer, pH 8.0, as were stock solutions of 1 mg/ml elastase and trypsin.
(§3) Comparison of Elastase and Trypsin Substrate Affinities. […] and 1 μg/ml of elastase and trypsin were assayed using succinylated elastin, gelatin, and casein substrate. Enzyme dilutions were prepared from a 1 mg/ml stock of trypsin and elastase in BupH buffer or 50 mM sodium borate, pH 8.0. Assays contained 50 μl enzyme and 100 μg succinylated substrate and were made up to a volume of 150 μl with BupH buffer or 50 mM sodium borate buffer, pH 8.0. Digests were incubated at 37° C. for 1 hour. All digests were prepared in duplicate and optical densities were measured at 450 nm. Blank reaction contained buffer/enzyme. Blank reading was subtracted from the final reaction optical density to give corrected absorbance values. Standard deviations are given in parentheses. The activity of elastase varies with substrate in the following order: elastin>casein>gelatin. The activity of trypsin varies with substrate in the following order: gelatin>casein>elastin. Substrate affinity was evaluated by the level of absorbance at 450 nm each protease generated with each substrate.

succinylated elastin = experiment: Protease assay using succinylated elastin substrate with TNBSA detection; details: 37° C., 1 hour; for corrected absorbance at 450 nm, substrate Elastin: 100 μg succinylated elastin
Description: as §2, §3, §1

succinylated casein = experiment: Protease assay using succinylated casein substrate with TNBSA detection; details: 100 μg succinylated casein, 37° C., 1 hour
Description: as §2, §3

| Molecule | corrected optical density at 405 nm, SANA ([1]; elastase 1 ng/ml) | corrected optical density at 405 nm, SANA ([1]; elastase 10 ng/ml) | corrected optical density at 405 nm, SANA ([1]; elastase 100 ng/ml) | corrected optical density at 405 nm, SANA ([1]; elastase 1000 ng/ml) | corrected absorbance at 450 nm, substrate Gelatin (succinylated gelatin; protease concentration 1) | corrected absorbance at 450 nm, substrate Gelatin (succinylated gelatin; protease concentration 10) | corrected optical density at 450 nm, Succinylated Elastin (succinylated elastin; elastase 1 ng/ml) | corrected optical density at 450 nm, Succinylated Elastin (succinylated elastin; elastase 10 ng/ml) | corrected optical density at 450 nm, Succinylated Elastin (succinylated elastin; elastase 100 ng/ml) | corrected optical density at 450 nm, Succinylated Elastin (succinylated elastin; elastase 1000 ng/ml) | corrected absorbance at 450 nm, substrate Elastin (succinylated elastin; protease concentration 1) | corrected absorbance at 450 nm, substrate Elastin (succinylated elastin; protease concentration 10) | corrected absorbance at 450 nm, substrate Casein (succinylated casein; protease concentration 1) | corrected absorbance at 450 nm, substrate Casein (succinylated casein; protease concentration 10) |
| --- | --- | --- | --- | --- | --- | --- | --- | --- | --- | --- | --- | --- | --- | --- |
| Elastase: Porcine pancreatic elastase (PPE; 297 units/mg) (EC 3.4.21.36) purchased from CalBiochem | 0 | 0 | 0.011 (±0.004) | 0.129 (±0.026) | 0.037 | 0.120 | 0.0086 (±0.003) | 0.01 (±0.001) | 0.015 (±0.004) | 0.054 (±0.006) | 0.085 | 0.377 | 0.071 | 0.28 |
| B1 |  |  |  |  | 0.179 | 0.354 |  |  |  |  | 0.024 | 0.049 | 0.106 | 0.158 |
